Measurements taken from patent US20090031435A1, “SMA Therapy and Cell Based Assay” (priority 2002, published 2009).

Assays:
[1] = system: SMN2-luciferase reporter construct; assay: SMN2-luciferase splicing reporter luminescence assay in C33A cells; type: cell-based, human
Description: (§1) In a screen to identify compounds capable of enhancing the inclusion of exon 7 in SMN2 mRNA, cells of the human cervical carcinoma cell line C33A (ATCC#HTB-31) were stably transformed with an SMN fragment/luciferase reporter gene construct that incorporated exons 6-8 of SMN1 or SMN2 for use in a high-throughput screening assay. These cells were cultured in Dulbecco's Modified Eagle's Medium (DMEM) with 10% Fetal Bovine Serum (Sigma F 2442), 50 units/mL penicillin 50 μg/mL streptomycin sulfate and 400 mg/L G418 (i.e. Geneticin, Gibco, cat. No. 11811-031). The assay medium used to perform the luciferase assay was identical to the growth medium except the G418 selection agent was omitted. To perform the luciferase assay, a single reagent (25 mM glycylglycine, 15 mM magnesium sulfate, 4 mM EGTA, adjusted to pH 7.85, to which is added 10 μM D-luciferin (Sigma L9504), 10 mM dithiothreitol (DTT, Roche Molecular Biochemicals 100034), 2 mM adenosine 5′-triphosphate (ATP, Sigma A7699), 50 μM CoenzymeA, sodium salt (Sigma C 3144) and 1.5% Triton X-100) was used to lyse the cells and to initiate the luciferase reaction.
(§2) Using this cell-based luminescence assay, a screen was performed to identify compounds that modulate SMN splicing. Stably transfected C33A cells (˜35-40 M cells/flask) were cultured, then removed from T-175 culture flasks with 3 mL trypsin, and quenched with 7 mL assay medium. The cells were spun down and re-suspended in assay medium to a concentration of ˜200,000 cells/mL. Cells were immediately seeded in 384-well assay plates (Nalge Nunc white plates, #164610) 57 μL/well for a cell density of 11,000 cells/well. Compounds from a library obtained from the National Institute of Neurological Disorders and Stroke (NINDS) were added to the cells to a final concentration of 10 μM (diluted with assay medium by 1000× from the 10 mM stock solution in DMSO). The cells were incubated with the test compounds at 37° C. for ˜48 hr. A Zymark Sciclone ALH was used for cell seeding and compound addition. After incubation, the assay plates were cooled to room temperature for ˜10-60 minutes. The medium and compounds were aspirated from the wells, followed by 6 rinse/aspirate cycles with a PBS solution. 53 μL of the luciferase assay reagent was added and the plate was immediately transferred to a luminescence plate reader. The plate was shaken for 30 minutes prior to reading. The plate processing steps were performed on an integrated Packard Minitrak/Sidetrak platereader.
(§3) To analyze the data, the dark count background was first subtracted from all luminescence readings. The signal from each compound treated well was divided by the average of 48 control wells on the same 384-well plate. Each compound library plate was tested in triplicate with each of the two cell lines, and the entire assay was repeated on two separate occasions, yielding six readings for each compound for each cell line. The highest and lowest of the six normalized readings were dropped and the remaining four readings averaged. These average values of compound-treated luminescence versus control luminescence are denoted “Xnorm(y)”, where X indicates the cell line, SMN1-luciferase or SMN2-luciferase, and y represents the compound. The difference of [SMN2norm(y)−SMN1norm(y)] measures the selective change in SMN2-luciferase expression versus change in SMN1 luciferase production upon treatment with compound y. This is the final score that is output.
(§4) These dilutions were created with a Zymark Sciclone ALH Z-8. Once created, the assay was performed as described for the screening process. Concentrations required to achieve 50% of the maximally achievable effect for each compound (“EC50”) were calculated using Xlfit (IDBS).

SMN1-luciferase control = SMN1-luciferase control splicing reporter luminescence assay in C33A cells; type: cell-based, human
Description: as §1, §2, §3, §4

[2] = system: SMN2-luciferase reporter construct; assay: SMN2-luciferase splicing reporter luminescence assay in NSC34 cells; type: cell-based, mouse
Excerpt: For example, when luciferase is used as the reporter gene in an SMN splicing assay, synthesis of full-length protein can be monitored by luminescence; positive drug candidates will elicit an increase in the amount of luminescence produced from an SMN2-luciferase cassette, which is normally inefficiently spliced, but will not affect the level of luminescence in cells expressing the SMN1-luciferase reporter (because SMN1 transcripts are normally spliced to include exon 7 about 100% of the time). ELISA, Western blotting or gem counts (obtained using indirect immunofluorescence microscopy) can be used to verify the increase in SMN2-luciferase protein levels, and analysis by RNAase protection, Northern blot or RT-PCR, such as quantitative or semiquantitative, can be used to determine whether the effect of the compound is at the level of splicing or mRNA stability. Identification of a role for indoprofen or analogs of this compound in SMN splicing in vitro can be achieved through the generation of stable cell lines expressing the SMN-reporter gene (e.g., SMN-luciferase) splicing cassette. For example, the embryonic mouse spinal cord cell line NSC34 and the human cervical carcinoma cell line C33A can be used for the methods of the invention. […]

## CC(Cc1ccccc1)C(=O)O (stereo not drawn) [Alpha-methylhydrocinnamic acid]
[1]
  Effect on splicing of SMN2-luciferase in C33A cells: Decreased
SMN1-luciferase control
  Effect on splicing of SMN1-luciferase control in C33A cells: Decreased
[2]
  Effect on splicing of SMN2-luciferase in NSC34 cells: (no effect in NSC34
